Experimental data published in ChEMBL document CHEMBL1128172, “Structure-activity relationships of cyclic pentapeptide endothelin A receptor antagonists” (J Med Chem, 1995).

Target: T1, Endothelin-1 receptor (Sus scrofa, UniProt Q29010)
T1 sequence (Q29010 whole entry): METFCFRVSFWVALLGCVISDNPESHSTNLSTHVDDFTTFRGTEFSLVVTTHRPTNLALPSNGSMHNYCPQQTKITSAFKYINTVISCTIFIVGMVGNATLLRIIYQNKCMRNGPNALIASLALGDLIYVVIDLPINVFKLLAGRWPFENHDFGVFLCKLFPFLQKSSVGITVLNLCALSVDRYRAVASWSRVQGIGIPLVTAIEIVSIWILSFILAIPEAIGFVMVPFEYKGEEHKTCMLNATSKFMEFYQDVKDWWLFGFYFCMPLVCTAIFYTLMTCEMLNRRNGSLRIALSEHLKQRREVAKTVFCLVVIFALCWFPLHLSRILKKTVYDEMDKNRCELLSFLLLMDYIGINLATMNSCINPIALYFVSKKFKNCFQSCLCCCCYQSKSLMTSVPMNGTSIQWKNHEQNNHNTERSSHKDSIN
Assay: The compound was tested for binding inhibitory activity against Endothelin A receptor from porcine aortic smooth muscle membranes.

IC50 max [nM]	SMILES
5600	CC(C)[C@H]1NC(=O)[C@H](C)NC(=O)[C@@H](CC(=O)O)NC(=O)[C@@H](Cc2c[nH]c3ccccc23)NC(=O)[C@H](CC2CCCCC2)NC1=O (single isomer, unassigned)
33	CCC[C@@H]1NC(=O)[C@@H](C(C)C)NC(=O)[C@@H]2CCCN2C(=O)[C@@H](CC(=O)O)NC(=O)[C@@H](Cc2c[nH]c3ccccc23)NC1=O (single isomer, unassigned)
> 100000	CC(C)C[C@@H]1NC(=O)[C@@H](C(C)C)NC(=O)[C@@H]2CCCN2C(=O)[C@@H](CC(=O)O)NC(=O)[C@@H](Cc2c[nH]cn2)NC1=O (single isomer, unassigned)
18	CC(C)C[C@H]1NC(=O)[C@H](C(C)C)NC(=O)[C@H]2C[C@@H](O)CN2C(=O)[C@H](CC(=O)O)NC(=O)[C@H](Cc2c[nH]c3ccccc23)NC1=O
18	CC(C)C[C@@H]1NC(=O)[C@@H](C(C)C)NC(=O)[C@@H]2CCCN2C(=O)[C@@H](CC(=O)O)NC(=O)[C@@H](Cc2cn(C=O)c3ccccc23)NC1=O (single isomer, unassigned)
240	CC(C)C[C@@H]1NC(=O)[C@@H](C(C)C)NC(=O)[C@H](CS)NC(=O)[C@@H](CC(=O)O)NC(=O)[C@@H](Cc2c[nH]c3ccccc23)NC1=O (single isomer, unassigned)
35000	CC(C)C[C@@H]1NC(=O)CNC(=O)[C@H](CO)NC(=O)[C@@H](CC(=O)O)NC(=O)[C@@H](Cc2c[nH]c3ccccc23)NC1=O (single isomer, unassigned)
250	CC(C)C[C@@H]1NC(=O)[C@@H](C(C)C)NC(=O)[C@H](CCCN)NC(=O)[C@@H](CC(=O)O)NC(=O)[C@@H](Cc2c[nH]c3ccccc23)NC1=O (single isomer, unassigned)
4200	CC(C)C[C@@H]1NC(=O)[C@@H]([C@H](C)O)NC(=O)[C@H](C)NC(=O)[C@@H](CC(=O)O)NC(=O)[C@@H](Cc2c[nH]c3ccccc23)NC1=O
110	CC(C)C[C@@H]1NC(=O)[C@@H](C(C)C)NC(=O)[C@H](C)NC(=O)[C@@H](CC(=O)O)NC(=O)[C@@H](Cc2c[nH]c3ccccc23)NC1=O (single isomer, unassigned)
270	CC(C)C[C@@H]1NC(=O)[C@@H](C(C)C)NC(=O)[C@H]([C@@H](C)O)NC(=O)[C@@H](CC(=O)O)NC(=O)[C@@H](Cc2c[nH]c3ccccc23)NC1=O (stereo in doubt)
240	CC(C)C[C@@H]1NC(=O)[C@@H](C(C)C)NC(=O)[C@H](Cc2cnc[nH]2)NC(=O)[C@@H](CC(=O)O)NC(=O)[C@@H](Cc2c[nH]c3ccccc23)NC1=O (single isomer, unassigned)
49	CC(C)C[C@@H]1NC(=O)[C@@H](C(C)(C)S)NC(=O)[C@@H]2CCCN2C(=O)[C@@H](CC(=O)O)NC(=O)[C@@H](Cc2c[nH]c3ccccc23)NC1=O (single isomer, unassigned)
260	CC(C)C[C@@H]1NC(=O)[C@@H](C)NC(=O)[C@@H]2CCCN2C(=O)[C@@H](CC(=O)O)NC(=O)[C@@H](Cc2c[nH]c3ccccc23)NC1=O (single isomer, unassigned)
13	CC(C)C[C@@H]1NC(=O)[C@@H](C(C)C)NC(=O)[C@@H]2CCCCN2C(=O)[C@@H](CC(=O)O)NC(=O)[C@@H](Cc2c[nH]c3ccccc23)NC1=O
> 100000	CC(C)C[C@@H]1NC(=O)[C@@H](CC(=O)O)NC(=O)[C@H](CO)NC(=O)[C@@H](CC(=O)O)NC(=O)[C@@H](Cc2c[nH]c3ccccc23)NC1=O (single isomer, unassigned)
440	CC(C)C[C@@H]1NC(=O)[C@@H](C)NC(=O)[C@H](CC(=O)O)NC(=O)[C@H](Cc2c[nH]c3ccccc23)NC(=O)[C@@H](CC(C)C)NC1=O
62	CCCC[C@@H]1NC(=O)[C@@H](C(C)C)NC(=O)[C@@H]2CCCN2C(=O)[C@@H](CC(=O)O)NC(=O)[C@@H](Cc2c[nH]c3ccccc23)NC1=O (single isomer, unassigned)
64	CC[C@@H](C)[C@H]1NC(=O)[C@@H]2CCCN2C(=O)[C@@H](CC(=O)O)NC(=O)[C@@H](Cc2c[nH]c3ccccc23)NC(=O)[C@H](CC(C)C)NC1=O
> 100000	CC(C)C[C@@H]1NC(=O)[C@@H](C(C)C)NC(=O)[C@H](C)NC(=O)[C@@H](CCC(=O)O)NC(=O)[C@H](Cc2c[nH]c3ccccc23)NC1=O (single isomer, unassigned)
47	CCC[C@H]1NC(=O)[C@@H]2CCCN2C(=O)[C@@H](CC(=O)O)NC(=O)[C@@H](Cc2c[nH]c3ccccc23)NC(=O)[C@H](CC(C)C)NC1=O (single isomer, unassigned)

IC50 max [nM]	SMILES
140	CC(C)C[C@@H]1NC(=O)[C@@H](C(C)C)NC(=O)[C@H](CCC(=O)O)NC(=O)[C@@H](CC(=O)O)NC(=O)[C@@H](Cc2c[nH]c3ccccc23)NC1=O (single isomer, unassigned)
2800	CC(C)[C@H]1NC(=O)[C@H](CC(=O)O)NC(=O)[C@@H](CC(=O)O)NC(=O)[C@@H](Cc2c[nH]c3ccccc23)NC(=O)[C@H](C)NC1=O (single isomer, unassigned)
> 100000	CC(C)C[C@@H]1NC(=O)[C@@H](C(C)C)NC(=O)[C@H](C)NC(=O)[C@H](CCC(=O)O)NC(=O)[C@@H](Cc2c[nH]c3ccccc23)NC1=O (single isomer, unassigned)
190	CC(C)C[C@@H]1NC(=O)[C@@H](C(C)C)NC(=O)[C@H](CO)NC(=O)[C@@H](CC(=O)O)NC(=O)[C@@H](Cc2c[nH]c3ccccc23)NC1=O (single isomer, unassigned)
20	CC(C)C[C@@H]1NC(=O)[C@@H](C(C)C)NC(=O)[C@@H]2CSCN2C(=O)[C@@H](CC(=O)O)NC(=O)[C@@H](Cc2c[nH]c3ccccc23)NC1=O (single isomer, unassigned)
24	CC(C)C[C@@H]1NC(=O)[C@@H](c2ccccc2)NC(=O)[C@@H]2CCCN2C(=O)[C@@H](CC(=O)O)NC(=O)[C@@H](Cc2c[nH]c3ccccc23)NC1=O (single isomer, unassigned)
8500	CC(C)[C@H]1NC(=O)[C@H](C)NC(=O)[C@@H](CC(=O)O)NC(=O)[C@@H](Cc2c[nH]c3ccccc23)NC(=O)[C@@H]2CCCN2C1=O (single isomer, unassigned)
> 100000	CC(C)C[C@@H]1NC(=O)[C@@H](C(C)C)NC(=O)[C@@H]2CCCN2C(=O)[C@@H](CC(=O)O)NC(=O)[C@@H](Cc2ccccc2)NC1=O (single isomer, unassigned)
130	CSCC[C@@H]1NC(=O)[C@@H](CC(=O)O)NC(=O)[C@@H](Cc2c[nH]c3ccccc23)NC(=O)[C@H](CC(C)C)NC(=O)[C@@H](C(C)C)NC1=O (single isomer, unassigned)
120	CCCC[C@H]1NC(=O)[C@@H]2CCCN2C(=O)[C@@H](CC(=O)O)NC(=O)[C@@H](Cc2c[nH]c3ccccc23)NC(=O)[C@H](CC(C)C)NC1=O (single isomer, unassigned)
210	CC(C)C[C@@H]1NC(=O)[C@@H](C(C)C)NC(=O)[C@H](Cc2ccccc2)NC(=O)[C@@H](CC(=O)O)NC(=O)[C@@H](Cc2c[nH]c3ccccc23)NC1=O (single isomer, unassigned)
160	CC(C)C[C@@H]1NC(=O)[C@@H](C(C)C)NC(=O)CNC(=O)[C@@H](CC(=O)O)NC(=O)[C@@H](Cc2c[nH]c3ccccc23)NC1=O (single isomer, unassigned)
530	CC(C)C[C@@H]1NC(=O)[C@@H](C(C)C)NC(=O)[C@H](C(C)C)NC(=O)[C@@H](CC(=O)O)NC(=O)[C@@H](Cc2c[nH]c3ccccc23)NC1=O (single isomer, unassigned)
150	CC(C)C[C@@H]1NC(=O)[C@@H](C(C)C)NC(=O)[C@H](Cc2c[nH]c3ccccc23)NC(=O)[C@@H](CC(=O)O)NC(=O)[C@@H](Cc2c[nH]c3ccccc23)NC1=O (single isomer, unassigned)
3000	CC(C)C[C@@H]1NC(=O)[C@@H](C(C)C)NC(=O)[C@H](C)NC(=O)[C@@H](CCC(=O)O)NC(=O)[C@@H](Cc2c[nH]c3ccccc23)NC1=O (single isomer, unassigned)
32	CC(C)C[C@@H]1NC(=O)[C@@H](C(C)C)NC(=O)CN(C)C(=O)[C@@H](CC(=O)O)NC(=O)[C@@H](Cc2c[nH]c3ccccc23)NC1=O (single isomer, unassigned)
180	CC(C)C[C@@H]1NC(=O)[C@@H](C(C)C)NC(=O)[C@H](CC(=O)O)NC(=O)[C@@H](CC(=O)O)NC(=O)[C@@H](Cc2c[nH]c3ccccc23)NC1=O (single isomer, unassigned)
390	COC(=O)C[C@H]1NC(=O)[C@@H](Cc2c[nH]c3ccccc23)NC(=O)[C@H](CC(C)C)NC(=O)[C@@H](C(C)C)NC(=O)[C@@H]2CCCN2C1=O (single isomer, unassigned)
150	CC(C)C[C@@H]1NC(=O)[C@@H](C(C)C)NC(=O)[C@H](CCCN=C(N)N)NC(=O)[C@@H](CC(=O)O)NC(=O)[C@@H](Cc2c[nH]c3ccccc23)NC1=O (single isomer, unassigned)
1500	CC(C)C[C@@H]1NC(=O)[C@@H](C(C)C)NC(=O)[C@@H]2CCCN2C(=O)[C@@H](CC(=O)O)NC(=O)[C@@H](Cc2cn(C(=O)OC(C)(C)C)c3ccccc23)NC1=O (single isomer, unassigned)
35	CC(C)C[C@H]1C(=O)N[C@H](Cc2c[nH]c3ccccc23)C(=O)N[C@H](CC(=O)O)C(=O)N2CCC[C@H]2C(=O)N[C@H](C(C)C)C(=O)N1C (single isomer, unassigned)
